Source: patent publication US5580552A, “7-glycosyloxybenzopyran derivative and antiallergic agent containing the derivative as active ingredient” (priority 1994, dated 1996)

Experiments:
[1] = system: contact dermatitis induced by picryl chloride; experiment: Effect on contact dermatitis induced by picryl chloride in mice; format: in vivo; details: Mus musculus, po, 24 h, 50 mg/kg oral, 1 hour before and 16 hours after challenge; 24 hours after challenge; read-out: Inhibition (%) against the increase of ear thickness
How it was run: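 Mice sensitized on shaved abdomen with 7 mg picryl chloride in acetone, challenged 7 days later with 1% picryl chloride in olive oil on left ear. Compounds given orally at 50 mg/kg in 0.5% CMCNa 1 h before and 16 h after challenge. Ear thickness increase at 24 h vs pre-challenge; inhibition % relative to vehicle.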

[2] = system: homologous passive cutaneous anaphylaxis (PCA) reaction; experiment: Effect on homologous passive cutaneous anaphylaxis (PCA) reaction in rats; format: in vivo, rats (male wistar); details: Rattus norvegicus, po, 0.5 h, 50 mg/kg oral, 1 hour before challenge (TABLE 2)
How it was run: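 Male Wistar rats sensitized intradermally with anti-DNP-As serum; 48 h later compound given orally at 50 mg/kg in 0.5% CMCNa. Challenge 1 h post-dose with i.v. TNP-As plus Evans Blue; extravasated dye measured at 30 min, inhibition versus vehicle group, n=5.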

[3] = system: experimental asthma model (airway resistance); experiment: Effect on experimental asthma model in guinea pigs (airway resistance); format: in vivo, guinea pigs (male hartley); details: Cavia porcellus, po, 0.5 h, 50 mg/kg oral (TABLE 6)

SMILES	inhibition in vivo at 50 mg/kg [1] [%]	inhibition in vivo at 50 mg/kg [2] [%]	inhibition in vivo at 50 mg/kg [3] [%]
O=c1oc2cc(O[C@H]3O[C@H](CO)[C@@H](O)[C@H](O)[C@@H]3O)ccc2c(O)c1OCc1ccccc1 [compound 72]	42.3	45.2	52.1
CC(C)Oc1c(O)c(=O)oc2cc(O[C@@H]3O[C@H](CO)[C@@H](O)[C@H](O)[C@H]3O)ccc12 [compound 113]	45.5	40.3	56.6
